The text below walks through data of US20180148418A1, “AMIDO-SUBSTITUTED CYCLOHEXANE DERIVATIVES” (Bayer Pharma Aktiengesellschaft, priority 2015, published 2018).

Where a name gives a salt, the structure may show the parent alone.

Broadly, the IC50 is the concentration that gives 50% inhibition.

In one assay the target is T1, TNKS2 (Homo sapiens, UniProt Q9H2K2).
T1 construct: purchased BPS Bioscience, San Diego, USA 80572 (TNKS2 Histone Ribosylation Assay Kit)
T1 sequence (Q9H2K2 1-1166): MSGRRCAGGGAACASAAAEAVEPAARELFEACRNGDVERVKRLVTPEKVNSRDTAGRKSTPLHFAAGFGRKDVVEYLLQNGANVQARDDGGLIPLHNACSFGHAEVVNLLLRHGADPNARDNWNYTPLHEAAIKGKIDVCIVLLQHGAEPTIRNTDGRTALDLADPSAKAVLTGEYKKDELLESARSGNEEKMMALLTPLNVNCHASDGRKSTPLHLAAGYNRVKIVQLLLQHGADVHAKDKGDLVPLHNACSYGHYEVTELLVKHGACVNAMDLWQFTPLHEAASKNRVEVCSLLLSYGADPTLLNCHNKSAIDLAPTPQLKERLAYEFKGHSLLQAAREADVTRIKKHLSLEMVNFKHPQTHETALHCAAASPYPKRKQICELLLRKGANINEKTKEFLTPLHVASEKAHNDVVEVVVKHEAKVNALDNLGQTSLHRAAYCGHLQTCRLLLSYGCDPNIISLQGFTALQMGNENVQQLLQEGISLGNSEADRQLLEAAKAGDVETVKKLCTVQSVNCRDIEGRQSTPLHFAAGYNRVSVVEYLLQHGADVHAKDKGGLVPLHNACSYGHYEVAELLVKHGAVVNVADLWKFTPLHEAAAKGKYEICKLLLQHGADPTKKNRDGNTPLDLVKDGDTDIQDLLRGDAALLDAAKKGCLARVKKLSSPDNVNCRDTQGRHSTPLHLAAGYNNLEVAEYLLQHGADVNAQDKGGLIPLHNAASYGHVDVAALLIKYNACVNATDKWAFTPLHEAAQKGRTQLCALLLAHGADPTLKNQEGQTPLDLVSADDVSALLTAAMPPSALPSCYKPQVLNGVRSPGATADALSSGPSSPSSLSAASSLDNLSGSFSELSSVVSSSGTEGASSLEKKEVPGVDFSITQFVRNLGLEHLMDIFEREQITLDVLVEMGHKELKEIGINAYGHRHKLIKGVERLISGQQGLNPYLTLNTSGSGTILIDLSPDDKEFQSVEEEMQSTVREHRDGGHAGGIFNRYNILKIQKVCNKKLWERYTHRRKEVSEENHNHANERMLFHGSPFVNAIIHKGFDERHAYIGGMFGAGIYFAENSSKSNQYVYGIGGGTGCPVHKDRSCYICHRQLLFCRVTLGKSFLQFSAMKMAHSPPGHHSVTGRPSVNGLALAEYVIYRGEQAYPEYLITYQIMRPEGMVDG
The assay can be described thus: TNKS2 Assay B (auto-parsylation, [3H]-NAD+ SPA). Format: biochemical. As to conditions: 6 nM TNKS2, auto-parsylation, over night at room temperature.

Assay [1] has as its system HEK293 cells cotransfected with the FOP control vector. In words: HEK293 FOP assay (control reporter with non-functional TCF elements). As to conditions: Homo sapiens, 16 hours. Format: cell-based. The gist of the method: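 Stable HEK293 line carrying FOP control reporter (randomized non-functional TCF sites, with pcDNA3), Geneticin-selected, plated 24 h before assay. Stimulated with recombinant human Wnt-3a (2500-5 ng/ml) and compounds 50 μM–15 nM (3.16-fold steps) in CAFTY buffer pH 7.4 with 2 mM Ca2+, 0.01% BSA, run parallel to TOP line.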

Consider `COCC(C)NC(=O)c1nc[nH]c1C(=O)N[C@H]1CC[C@H](C(=O)Nc2cc(N3CCOCC3)ccc2Cl)CC1` (stereo partly drawn) [Example 91, N^5-(trans-4-{[2-chloro-5-(morpholin-4-yl)phenyl]carbamoyl}cyclohexyl)-N^4-(1-methoxypropan-2-yl)-1H-imidazole-4,5-dicarboxamide], for which the IC50 on TNKS2 is 6.8 µM; in assay [1], not below 50 µM.
`CNC(=O)c1[nH]cnc1C(=O)NC1CCC(C(=O)Nc2ccc(F)cc2Cl)CC1C` (racemic) [Example 39, N^4-{4-[(2-chloro-4-fluorophenyl)carbamoyl]-2-methylcyclohexyl}-N^5-methyl-1H-imidazole-4,5-dicarboxamide] displayed a half-maximal inhibitory concentration (IC50) against TNKS2 of 0.1 µM.
For `Cc1c(C(C)N(C)C)cnc2c(C(=O)N[C@H]3CC[C@H](C(=O)Nc4ccc(F)cc4Cl)CC3)cnn12` (mixture of isomers) [Example 55, N-{trans-4-[(2-chloro-4-fluorophenyl)carbamoyl]cyclohexyl}-6-[1-(dimethylamino)ethyl]-7-methylpyrazolo[1,5-a]pyrimidine-3-carboxamide formic acid salt], the IC50 on TNKS2 was 0.49 µM; in assay [1] it was not below 50 µM.
Taken in the same sequence, the figures for `O=C(NCCN1CCCCC1)c1nc[nH]c1C(=O)N[C@H]1CC[C@H](C(=O)Nc2ccc(F)cc2Cl)CC1` [Example 2, N^5-{trans-4-[(2-chloro-4-fluorophenyl)carbamoyl]cyclohexyl}-N^4-[2-(piperidin-1-yl)ethyl]-1H-imidazole-4,5-dicarboxamide] were 0.23 µM and not below 50 µM.
`CNC(C)c1cnc2c(C(=O)N[C@H]3CC[C@H](C(=O)Nc4ccc(F)cc4Cl)CC3)cnn2c1C` (stereo partly drawn) [Example 54, N-{trans-4-[(2-chloro-4-fluorophenyl)carbamoyl]cyclohexyl}-7-methyl-6-[1-(methylamino)ethyl]pyrazolo[1,5-a]pyrimidine-3-carboxamide formic acid salt]: the figures for the IC50 (against TNKS2; in assay [1]) were 0.68 µM and not below 50 µM, respectively.
